Earlier results as cited in US20260069708A1 (priority 2022, published 2026).

Settings: reportedly

COc1cccc2c1C(=O)c1c(O)c3c(c(O)c1C2=O)C[C@@](O)(C(=O)CO)C[C@@H]3O[C@H]1C[C@H](N)[C@H](O)[C@H](C)O1 [Dox, doxorubicin]
fold lower IC50 than irinotecan: 10-100 fold
